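Test compounds were applied to cells in 96-well plates for 48 hours at 5 doses. GI50: concentration for 50% inhibition of growth. TGI denotes the concentration required for complete inhibition of growth.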
Experiments:
Experiment in all cases: NCI anticancer screen, dose series, 48 h
NCI-H226 lung = tested on: NCI-H226 lung
OVCAR-8 ovarian = tested on: OVCAR-8 ovarian
DU-145 prostate = tested on: DU-145 prostate
MOLT-4 leukemia = tested on: MOLT-4 leukemia
U251 CNS = tested on: U251 CNS
NCI-H460 lung = tested on: NCI-H460 lung
IGROV1 ovarian = tested on: IGROV1 ovarian
T-47D breast = tested on: T-47D breast
COLO 205 colon = tested on: COLO 205 colon
SK-MEL-5 melanoma = tested on: SK-MEL-5 melanoma
MDA-MB-435 = tested on: MDA-MB-435
A498 renal = tested on: A498 renal
BT-549 breast = tested on: BT-549 breast
ACHN renal = tested on: ACHN renal
A549 NSCLC = tested on: A549 NSCLC
HOP-62 NSCLC = tested on: HOP-62 NSCLC
NCI-H23 lung = tested on: NCI-H23 lung
SF-539 CNS = tested on: SF-539 CNS
RXF 393 renal = tested on: RXF 393 renal
PC-3 prostate = tested on: PC-3 prostate
SK-MEL-28 melanoma = tested on: SK-MEL-28 melanoma
NCI-H522 lung = tested on: NCI-H522 lung
UACC-62 melanoma = tested on: UACC-62 melanoma
OVCAR-4 ovarian = tested on: OVCAR-4 ovarian
SF-268 CNS = tested on: SF-268 CNS
SNB-75 CNS = tested on: SNB-75 CNS
OVCAR-3 ovarian = tested on: OVCAR-3 ovarian
HT29 colon = tested on: HT29 colon
SW-620 colon = tested on: SW-620 colon
HCT-116 colon = tested on: HCT-116 colon
UO-31 renal = tested on: UO-31 renal
MDA-MB-231 breast = tested on: MDA-MB-231 breast
CCRF-CEM leukemia = tested on: CCRF-CEM leukemia
HCC-2998 colon = tested on: HCC-2998 colon
CAKI-1 renal = tested on: CAKI-1 renal
HCT-15 colon = tested on: HCT-15 colon
TK-10 renal = tested on: TK-10 renal
SNB-19 CNS = tested on: SNB-19 CNS
M14 melanoma = tested on: M14 melanoma
SN12C renal = tested on: SN12C renal
MCF7 breast = tested on: MCF7 breast
EKVX NSCLC = tested on: EKVX NSCLC
MALME-3M melanoma = tested on: MALME-3M melanoma
NCI/ADR-RES ovarian = tested on: NCI/ADR-RES ovarian
UACC-257 melanoma = tested on: UACC-257 melanoma
SF-295 CNS = tested on: SF-295 CNS
K-562 leukemia = tested on: K-562 leukemia
SK-MEL-2 melanoma = tested on: SK-MEL-2 melanoma
SK-OV-3 ovarian = tested on: SK-OV-3 ovarian
786-0 renal = tested on: 786-0 renal
KM12 colon = tested on: KM12 colon
OVCAR-5 ovarian = tested on: OVCAR-5 ovarian
HS 578T breast = tested on: HS 578T breast
HOP-92 NSCLC = tested on: HOP-92 NSCLC
SR leukemia = tested on: SR leukemia
LOX IMVI melanoma = tested on: LOX IMVI melanoma

C[C@@H]1C=C(CCCCCCCCCCC[C@H](O)[C@@H]2CCC(=O)O2)C(=O)O1
GI50 (NCI-H226 lung): 15.9 µM
TGI (NCI-H226 lung): 68.5 µM
GI50 (OVCAR-8 ovarian): 23.4 µM
TGI (OVCAR-8 ovarian): 69 µM
GI50 (DU-145 prostate): 24.1 µM
TGI (DU-145 prostate): > 100 µM
GI50 (MOLT-4 leukemia): 21.6 µM
TGI (MOLT-4 leukemia): 42.6 µM
GI50 (U251 CNS): 24.5 µM
TGI (U251 CNS): 81.7 µM
GI50 (NCI-H460 lung): 31.2 µM
TGI (NCI-H460 lung): > 100 µM
GI50 (IGROV1 ovarian): 13.7 µM
TGI (IGROV1 ovarian): 67.9 µM
GI50 (T-47D breast): 32.7 µM
TGI (T-47D breast): 65.2 µM
GI50 (COLO 205 colon): 19.1 µM
TGI (COLO 205 colon): 40.6 µM
GI50 (SK-MEL-5 melanoma): 14.5 µM
TGI (SK-MEL-5 melanoma): 28.1 µM
GI50 (MDA-MB-435): 24.3 µM
TGI (MDA-MB-435): 60.2 µM
GI50 (A498 renal): 25.6 µM
TGI (A498 renal): 68.7 µM
GI50 (BT-549 breast): 47.4 µM
TGI (BT-549 breast): > 100 µM
GI50 (ACHN renal): 17.9 µM
TGI (ACHN renal): 49.3 µM
GI50 (A549 NSCLC): 38.1 µM
TGI (A549 NSCLC): > 100 µM
GI50 (HOP-62 NSCLC): 40.2 µM
TGI (HOP-62 NSCLC): > 100 µM
GI50 (NCI-H23 lung): 24.2 µM
TGI (NCI-H23 lung): 99.1 µM
GI50 (SF-539 CNS): 38.8 µM
TGI (SF-539 CNS): > 100 µM
GI50 (RXF 393 renal): 47.2 µM
TGI (RXF 393 renal): > 100 µM
GI50 (PC-3 prostate): 30.5 µM
TGI (PC-3 prostate): 92.9 µM
GI50 (SK-MEL-28 melanoma): 78.3 µM
TGI (SK-MEL-28 melanoma): > 100 µM
GI50 (NCI-H522 lung): 15.9 µM
TGI (NCI-H522 lung): 49.2 µM
GI50 (UACC-62 melanoma): 21.2 µM
TGI (UACC-62 melanoma): 85.7 µM
GI50 (OVCAR-4 ovarian): > 100 µM
TGI (OVCAR-4 ovarian): > 100 µM
GI50 (SF-268 CNS): 40.3 µM
TGI (SF-268 CNS): > 100 µM
GI50 (SNB-75 CNS): > 100 µM
TGI (SNB-75 CNS): > 100 µM
GI50 (OVCAR-3 ovarian): 16.4 µM
TGI (OVCAR-3 ovarian): 44.7 µM
GI50 (HT29 colon): 42.4 µM
TGI (HT29 colon): > 100 µM
GI50 (SW-620 colon): 37.6 µM
TGI (SW-620 colon): > 100 µM
GI50 (HCT-116 colon): 28 µM
TGI (HCT-116 colon): > 100 µM
GI50 (UO-31 renal): 20.1 µM
TGI (UO-31 renal): 55.6 µM
GI50 (MDA-MB-231 breast): 19.4 µM
TGI (MDA-MB-231 breast): 88.7 µM
GI50 (CCRF-CEM leukemia): 17.6 µM
TGI (CCRF-CEM leukemia): 47.4 µM
GI50 (HCC-2998 colon): 2.26 µM
TGI (HCC-2998 colon): 16.7 µM
GI50 (CAKI-1 renal): 35.8 µM
TGI (CAKI-1 renal): > 100 µM
GI50 (HCT-15 colon): 25.5 µM
TGI (HCT-15 colon): > 100 µM
GI50 (TK-10 renal): 22.9 µM
TGI (TK-10 renal): 63.8 µM
GI50 (SNB-19 CNS): 86.5 µM
TGI (SNB-19 CNS): > 100 µM
GI50 (M14 melanoma): 25.1 µM
TGI (M14 melanoma): 87.9 µM
GI50 (SN12C renal): 25.3 µM
TGI (SN12C renal): 82.8 µM
GI50 (MCF7 breast): 39.2 µM
TGI (MCF7 breast): > 100 µM
GI50 (EKVX NSCLC): 33.2 µM
TGI (EKVX NSCLC): > 100 µM
GI50 (MALME-3M melanoma): 19.1 µM
TGI (MALME-3M melanoma): 46.6 µM
GI50 (NCI/ADR-RES ovarian): 12.1 µM
TGI (NCI/ADR-RES ovarian): 34 µM
GI50 (UACC-257 melanoma): 43.2 µM
TGI (UACC-257 melanoma): > 100 µM
GI50 (SF-295 CNS): 19.8 µM
TGI (SF-295 CNS): 48.6 µM
GI50 (K-562 leukemia): 20.4 µM
TGI (K-562 leukemia): 56.7 µM
GI50 (SK-MEL-2 melanoma): 40.8 µM
TGI (SK-MEL-2 melanoma): > 100 µM
GI50 (SK-OV-3 ovarian): 51.7 µM
TGI (SK-OV-3 ovarian): > 100 µM
GI50 (786-0 renal): 23.6 µM
TGI (786-0 renal): > 100 µM
GI50 (KM12 colon): 23.6 µM
TGI (KM12 colon): 65 µM

COCCn1cc(-c2csc(-c3c[nH]c4ccccc34)n2)c2cccnc21
GI50 (OVCAR-8 ovarian): 8 µM
TGI (OVCAR-8 ovarian): > 100 µM
GI50 (DU-145 prostate): 15.4 µM
TGI (DU-145 prostate): > 100 µM
GI50 (U251 CNS): 6.12 µM
TGI (U251 CNS): > 100 µM
GI50 (NCI-H460 lung): 3.4 µM
TGI (NCI-H460 lung): > 100 µM
GI50 (IGROV1 ovarian): 2.53 µM
TGI (IGROV1 ovarian): > 100 µM
GI50 (T-47D breast): 0.418 µM
TGI (T-47D breast): > 100 µM
GI50 (COLO 205 colon): 2.66 µM
TGI (COLO 205 colon): > 100 µM
GI50 (SK-MEL-5 melanoma): 3.22 µM
TGI (SK-MEL-5 melanoma): > 100 µM
GI50 (MDA-MB-435): 0.863 µM
TGI (MDA-MB-435): 5.25 µM
GI50 (A498 renal): 3.03 µM
TGI (A498 renal): 9.56 µM
GI50 (BT-549 breast): 4.45 µM
TGI (BT-549 breast): > 100 µM
GI50 (ACHN renal): 5.59 µM
TGI (ACHN renal): > 100 µM
GI50 (A549 NSCLC): 7.1 µM
TGI (A549 NSCLC): > 100 µM
GI50 (OVCAR-5 ovarian): 28.2 µM
TGI (OVCAR-5 ovarian): > 100 µM
GI50 (HOP-62 NSCLC): 2.82 µM
TGI (HOP-62 NSCLC): > 100 µM
GI50 (HS 578T breast): 9.14 µM
TGI (HS 578T breast): > 100 µM
GI50 (NCI-H23 lung): 4.58 µM
TGI (NCI-H23 lung): > 100 µM
GI50 (SF-539 CNS): 5.91 µM
TGI (SF-539 CNS): > 100 µM
GI50 (RXF 393 renal): 5.76 µM
TGI (RXF 393 renal): 64.3 µM
GI50 (PC-3 prostate): 6.81 µM
TGI (PC-3 prostate): > 100 µM
GI50 (SK-MEL-28 melanoma): 8.18 µM
TGI (SK-MEL-28 melanoma): > 100 µM
GI50 (UACC-62 melanoma): 4.58 µM
TGI (UACC-62 melanoma): > 100 µM
GI50 (OVCAR-4 ovarian): 1.76 µM
TGI (OVCAR-4 ovarian): > 100 µM
GI50 (HOP-92 NSCLC): 14.9 µM
TGI (HOP-92 NSCLC): > 100 µM
GI50 (SF-268 CNS): 6.98 µM
TGI (SF-268 CNS): > 100 µM
GI50 (SNB-75 CNS): 1.43 µM
TGI (SNB-75 CNS): 24.7 µM
GI50 (SR leukemia): 3.02 µM
TGI (SR leukemia): > 100 µM
GI50 (OVCAR-3 ovarian): 2.94 µM
TGI (OVCAR-3 ovarian): > 100 µM
GI50 (HT29 colon): 3.19 µM
TGI (HT29 colon): > 100 µM
GI50 (SW-620 colon): 3.52 µM
TGI (SW-620 colon): > 100 µM
GI50 (HCT-116 colon): 3.63 µM
TGI (HCT-116 colon): > 100 µM
GI50 (UO-31 renal): 4.15 µM
TGI (UO-31 renal): > 100 µM
GI50 (MDA-MB-231 breast): 5.05 µM
TGI (MDA-MB-231 breast): > 100 µM
GI50 (CCRF-CEM leukemia): > 100 µM
TGI (CCRF-CEM leukemia): > 100 µM
GI50 (HCC-2998 colon): 4.08 µM
TGI (HCC-2998 colon): > 100 µM
GI50 (LOX IMVI melanoma): 3.96 µM
TGI (LOX IMVI melanoma): > 100 µM
GI50 (CAKI-1 renal): 8.36 µM
TGI (CAKI-1 renal): > 100 µM
GI50 (HCT-15 colon): 2.34 µM
TGI (HCT-15 colon): > 100 µM
GI50 (SNB-19 CNS): 16.2 µM
TGI (SNB-19 CNS): > 100 µM
GI50 (M14 melanoma): 3.22 µM
TGI (M14 melanoma): > 100 µM
GI50 (SN12C renal): > 100 µM
TGI (SN12C renal): > 100 µM
GI50 (MCF7 breast): 1.74 µM
TGI (MCF7 breast): > 100 µM
GI50 (EKVX NSCLC): 2 µM
TGI (EKVX NSCLC): > 100 µM
GI50 (MALME-3M melanoma): 3.58 µM
TGI (MALME-3M melanoma): > 100 µM
GI50 (NCI/ADR-RES ovarian): 1.76 µM
TGI (NCI/ADR-RES ovarian): 6.9 µM
GI50 (UACC-257 melanoma): > 100 µM
TGI (UACC-257 melanoma): > 100 µM
GI50 (SF-295 CNS): 3.35 µM
TGI (SF-295 CNS): > 100 µM
GI50 (K-562 leukemia): 2.8 µM
TGI (K-562 leukemia): > 100 µM
GI50 (SK-MEL-2 melanoma): 7.38 µM
TGI (SK-MEL-2 melanoma): > 100 µM
GI50 (SK-OV-3 ovarian): 14.8 µM
TGI (SK-OV-3 ovarian): > 100 µM
GI50 (786-0 renal): 6.25 µM
TGI (786-0 renal): > 100 µM
GI50 (KM12 colon): 0.762 µM
TGI (KM12 colon): > 100 µM

— PubChem BioAssay (NCI)
